The record followed here is a melting point compilation (Tetko et al.; mined from patent text by program, amines drawn as free bases though some values may be those of a salt).

Molecules are shown by their SMILES.

The melting point is the temperature of the solid-liquid transition. In turn, `CC(=O)OC1C=C(Br)C(=O)CO1` (stereo not given) registered a melting point of 78 to 80 °C.
Regarding `CC(C(=O)OC(C)(C)C)c1ccc(N2Cc3ccc(Br)cc3C2=O)cc1` (stereo not given), the melting point is 164 to 165 °C.
As for `CC(=O)/C=C1/C(=O)N(c2ccccc2)C1c1ccccc1` (stereo not given), the melting point amounted to 158 °C.
With `COC(=O)[C@H]1OC(O)[C@H](OC(=O)C(C)C)[C@@H](OC(=O)C(C)C)[C@@H]1OC(=O)C(C)C` (stereo not given in full) the figure was 89 °C.
Turning to `CC(C)(C)OC(=O)n1cccc1-c1ccc2c(c1)C1(CCCC1)C(=O)N2`, the melting point was 179 to 180 °C.
The compound `CCc1nnc(CCCOc2c(C)cc(-c3noc(C)n3)cc2C)s1` registered a melting point of 83 to 84 °C.
Compound `O=C(O)Cn1c(=O)n(S(=O)(=O)c2ccc(Cl)cc2)c(=O)c2ccc(Cl)cc21` came in with a melting point of 194 to 195 °C.
`CONC(=O)C(Cc1ccccc1)N(C)C(=O)C1CCCCC1C(=O)O` (stereo not given) gave a melting point of 168 to 171 °C.
Turning to `Cc1cccc(NC(=O)NCC(=O)N(CC(=O)OC(C)(C)C)c2ccccc2C(=O)N(C)c2ccccc2)c1`, the melting point amounted to 145 °C.
`CCc1nc(-c2ncn3c4ccc(Cl)cc4c(=O)n(C)c23)no1` yielded a melting point of 196 to 198 °C.
The compound `Cc1ccc(NC(=O)Cc2ccccc2C(=O)O)cc1/C=C/c1nc(C(C)C)cs1` gave a melting point of 181 to 183 °C.
`CC1(C)CCC(C)(C)c2cc(-c3cc(-c4ccc(C(=O)OCc5ccccc5)cc4)ccc3O)ccc21` yielded a melting point of 90 to 91 °C.
`CC(C)CCCC(C)C1CCC2C3CC=C4CC(Oc5ccc(N)cc5N)CCC4(C)C3CCC12C` (stereo not given) gave a melting point of 159 to 163 °C.
`CC(=O)NC1CCNC(c2ncccc2Cl)C1` (stereo not given): the melting point was 118 to 120 °C.
For `N#CCn1nnc(NC(=O)C(c2ccccc2)c2ccccc2)n1`, the melting point fell in the range of 173 to 174 °C.
`COC1(c2cc(F)cc(Sc3ccc(Cc4ccc(F)cc4)cc3)c2)CCOCC1` came in with a melting point of 62 to 64 °C.
Consider `COc1ccc(N=C(NC(=S)NCc2cccnc2)c2ccccc2)cc1`, for which the melting point was in the range of 142 to 143 °C.
Regarding `COc1ccc(C(=O)c2ccc(C)cc2)cc1C`, the melting point was 73 to 75 °C.
With `COc1ccc2c(c1)CCC(=C(O)C(F)F)C2=O` the figure was 52 to 54 °C; with `CC(C)Cc1ccc(C(F)C(=O)O)cc1` (stereo not given), 64 to 66 °C; with `Cc1cc(-c2ccc(Cl)cc2)n2ncc(C#N)c2n1`, 285 to 287 °C.
`O=C(O)c1[nH]c(=O)n2c1CN=C(c1ccccc1Cl)c1cc(Cl)ccc1-2` gave a melting point of 236 to 238 °C.
`Cn1nnnc1-c1cn(C)c2cc(C(F)(F)F)ccc2c1=O`: the melting point was 220 to 221 °C.
Then `NC(=O)C1CCc2[nH]c3cc(Cl)c(Cl)cc3c2C1` (stereo not given), with 199 to 200 °C; and `CC(=O)N=c1sc(C)cn1CC(=O)c1cccs1`, with 187 to 188 °C.
The compound `O=C1Cc2cc(Cl)cc(Oc3ccccc3F)c2N1` yielded a melting point of 204 to 207 °C.
Then `Nc1cccc(OCc2ccc3ccccc3n2)c1`, with 98 to 99 °C; and `CCC1c2ccc(C)n2-c2ccc(F)cc2N1S(=O)(=O)c1ccc(O)c(C)c1` (stereo not given), with 199 to 201 °C.
`CCOC(=O)c1cc(Cl)c(OCCCc2cc(C)no2)c(Cl)c1` registered a melting point of 49 to 50 °C.
`O=C(CCCc1cccnc1)N1CCC(CC(c2ccccc2)c2ccccc2)CC1`: the melting point lay in the range of 98 to 100 °C.
For the compound `CC(C)(Oc1ccc(NC(=O)c2cc(Cl)cc(Cl)c2)cc1)C(=O)O`, the melting point is 206 to 207 °C.
Compound `C=CCN(c1ccc(OC)cc1)S(=O)(=O)c1c(F)c(F)c(F)c(F)c1F` showed a melting point of 59 to 60 °C.
With `ON=C(Cl)c1ccc(Cl)c(Cl)c1` the figure was 104 to 106 °C; with `COC(=O)N1CCc2ccc(C(=O)CCC3CCN(C(=O)c4ccccc4)CC3)cc2CC1`, 120 to 123 °C; with `COCCc1sc2ncnc(N)c2c1-c1ccc(NC(=O)Nc2ccc(C)cc2)cc1`, 128 to 132 °C.
Then `CS(=O)(=O)C(=C1CN(C(c2ccccc2)c2ccccc2)C1)c1cc(F)cc(F)c1`, with 172 °C.
On to `O=C1NC(=O)C(=Cc2ccc(OC3CCN(c4ccccn4)CC3)cc2)S1`, for which the melting point is 218 to 220 °C.
Take `COc1ccc(-c2ccc3ccc(N)nc3n2)cc1`: the melting point turned out to be 220 °C.
Consider `CCNC(=O)Cc1cc(Oc2ccc(C(F)(F)F)cc2Cl)ccc1[N+](=O)[O-]`, for which the melting point is 189 °C.
In the case of `Cn1c(COc2ccc(CC3SC(=O)N(C(c4ccccc4)(c4ccccc4)c4ccccc4)C3=O)cc2)nc2ccc(Cl)nc21` (stereo not given), the melting point was 97 to 99 °C.
In the case of `Nc1cc(-c2ccoc2)ccc1Nc1cccc(-n2ccnc2)c1`, the melting point is 188 to 189 °C.
Then `COc1ccc(C(=O)c2cc3cc(OC)ccc3[nH]2)cc1`, with 155 to 158 °C; and `COc1ccc(NC(=O)c2ccc(-c3ccc(S(C)=O)cc3)c(C)c2)cc1N1CCN(C)CC1` (stereo not given), with 210 to 212 °C; and `CC(=O)OC1CSC(Oc2cccc(-c3c(C)noc3C)c2)C(OC(C)=O)C1OC(C)=O` (stereo not given), with 167 to 169 °C.
In turn, `CC(=O)Nc1ccc(C2=NNC(=O)C3CC23)cc1` (stereo not given) gave a melting point of 269 to 270 °C.
Compound `COC(=O)c1sc(N)cc1NC(C)=O` gave a melting point of 162 to 163 °C.
For the compound `O=C(O)CCCc1ccc(C(NS(=O)(=O)c2ccc(Cl)cc2)C2CCCCC2)cc1` (single isomer, unassigned; (+)), the melting point is 165 to 166 °C.
For the compound `CCOC(=O)c1cn(C[C@@H]2CN(c3ccc(N4CCC5(CC4)OCCO5)c(F)c3)C(=O)O2)nn1`, the melting point lay in the range of 168 to 170 °C.
As for `CCC(C)c1ccc(-n2c(-c3cc(C)c(OCCO)c(C)c3)nc3ccc(S(C)(=O)=O)cc3c2=O)cc1` (stereo not given), the melting point lay within 259 to 260 °C.
Compound `N#CC=Cc1ccc2c(c1)-c1c3c(c4c([nH]c5ccccc54)c1C2)C(=O)NC3` registered a melting point of more than 330 °C.
For `c1ccc2sc(SSN(C3CCCCC3)C3CCCCC3)nc2c1`, the melting point is 84 to 86 °C.
In the case of `CC(C)n1cc(-c2ccc(F)cc2)nn1`, the melting point is 54 to 55 °C.
As for `O=C1Cc2cccc3c2N1C(C(F)(F)F)=C(F)S3`, the melting point lay within 128 to 130 °C.
Consider `Cc1cnc(-c2ccc(Br)cc2)nc1-c1ccc(Br)cc1`, for which the melting point fell in the range of 136 to 137 °C.
In turn, `CC(C)c1cccc(C(C)C)c1NC(=O)Cc1c(-c2ccccc2)c2cc(Cl)ccc2n(C)c1=O` showed a melting point of 237 to 238 °C.
Then `CCOc1cccc(C(=O)Nc2ccc(C(=O)N3CCCc4ccccc43)cc2)c1`, with 170 to 172 °C; and `Cc1cc(C)c2c(c1C)OCC2c1ccc(C=O)cc1` (stereo not given), with 87 to 88 °C.
In the case of `CCOC(=O)COc1cccc2cc(S(N)(=O)=O)sc12`, the melting point was determined as 168 °C.
`CNC(=S)NCCSCc1csc(N)n1` came in with a melting point of 136 to 140 °C.
Then `O=[N+]([O-])c1cn2c(n1)OC(COc1ccc(N3CCN(NCc4ccc(-c5ccc(C(F)(F)F)cc5)cc4)CC3)cc1)CC2` (stereo not given), with 294 to 295 °C; and `Cc1cc(C(=O)N(C)C)ccc1-c1ccc(C(=O)O)cc1`, with 190 to 192 °C.
With `N#Cc1ccnc(C2=NC(c3ccc(F)cc3)(c3ccc(F)cc3)CN2)c1` the figure was 206 to 208 °C; with `CC(=O)c1cc(N(C)C)ccc1NC(=O)c1ccc(OCc2ccccc2)cc1`, 139 to 140 °C; with `CC(C)(C)C(=O)SC[C@H](NC(=O)C(C)(C)S)C(=O)O`, 115 to 117 °C.
Compound `COc1ccc(-c2oncc2CCC(=O)O)cc1OC` yielded a melting point of 169 to 170 °C.
`Cn1c(=O)cc(-c2cccc(O)c2)c2cccnc21` yielded a melting point of 260 to 261 °C.
For the compound `CN1CC(CCCl)Sc2ncccc2C1=O` (stereo not given), the melting point lay within 97 to 100 °C.
With `Cc1cc2cc(C(=O)O)[nH]c2cc1C` the figure was 266 °C; with `CC(C)(CO)NC(=S)NC(=O)c1ccccc1`, 116 to 118 °C; with `CC(=NC(C#N)=C(N)C#N)c1ccccc1O`, 181 to 183 °C.
Then `Cc1cc(-c2cc3ncccc3c(=O)[nH]2)cc(C)c1O`, with more than 350 °C.
Regarding `COc1cc(N)c(Cl)cc1C(=O)NCC1CCN(CCCCCNCc2ccc(F)cc2)CC1`, the melting point fell in the range of 66 to 68 °C.
For `CCCOC(=O)CCC(=O)c1ccc(-c2ccccc2F)cc1`, the melting point was 53 to 54 °C.
With `CCC1(O)CC(=O)OCc2c1cc1n(c2=O)Cc2c-1nc1ccccc1c2-c1ccccc1` (stereo not given), the melting point is more than 250 °C.
As for `COc1cccc2c1CCC1=C2CC(=O)N1`, the melting point fell in the range of 220 to 222 °C.
The compound `O=C(NCC(C=C1CCCCC1[N+](=O)[O-])=NO)c1cccnc1` (stereo not given) yielded a melting point of 149 to 151 °C.
With `CCCCc1ccc2nnc(C(=O)O)cc2c1` the figure was 131 to 133 °C; with `COc1cc(C)nc(NC(=O)NS(=O)(=O)c2ccsc2S(C)(=O)=O)n1`, 204 to 206 °C; with `COc1cccc2c1Oc1cc(SC)ccc1C2`, 112 to 114 °C.
Compound `CCN(CC)C(=O)c1cc2c(cn1)[nH]c1ccccc12` displayed a melting point of 170 °C.
With `CCSSCS(C)(=O)=O`, the melting point lay within 34.6 to 36.3 °C.
`C[C@@H]1N=C(c2ccccc2)c2cc(C#CCCCC(=O)O)ccc2N(C)C1=O` displayed a melting point of 62 to 63 °C.
With `Cc1ccc(Cc2cnc(NCCCN(C)c3ncc(Br)cn3)[nH]c2=O)cn1` the figure was 137 to 140 °C; with `CC(=O)Nc1ccc(OC(C)(C)c2nc3ccccc3s2)cc1`, 149 to 150 °C; with `COc1ccc(-n2cc(C(=O)O)c3nc4c(C)cccc4cc3c2=O)cc1OC`, 297 to 298 °C.
Compound `Cc1cccc(OCC2=NCCN2C(=S)N(C)C)c1C` yielded a melting point of 124 to 127 °C.
`CCc1c(C)c(NC(=O)NCCO)c(C)c2c1OCC2c1ccc(C(C)C)cc1` (stereo not given): the melting point lay in the range of 147 to 148 °C.
`CC(C)(C)COc1c(-c2ccc(S(N)(=O)=O)c(F)c2)cnn(CC(F)(F)F)c1=O` gave a melting point of 144 to 145 °C.
In turn, `CC(C)(CO)c1cc(Cl)nnc1Cl` gave a melting point of 133 to 136 °C.
Then `CC(C)CNc1c([N+](=O)[O-])cnc2cc(Br)cnc12`, with 114 to 115 °C.
